Test results as given in publication PMC12389022, “Drug Metabolism and Pharmacokinetic Evaluation of a Novel RNase H2 Inhibitor for the Treatment of Triple-Negative Breast Cancer” (Pharmaceutics, 2025).
Converted amounts (≈) assume the structure as drawn. Read-outs that look alike come from different tables or passages of the source.

Tests used:
[1] = Pharmacokinetics of R14 in rats after i.v. and oral dose; assay type: in vivo, Sprague Dawley rats; settings: for AUC(0-t): read-out: AUC0→10h
Procedure: This study was carried out in accordance with the recommendation of the Guidelines for the Care and Use of Laboratory Animals (2011) and was in compliance with the ARRIVE guidelines. All animal experiments were conducted with prior approval from the Texas Southern University Institutional Animal Care and Use Committee (IACUC). Male adult SD rats (250–350 g) were purchased from Envigo RMS (Indianapolis, IN, USA) and were housed in standard rodent cages (3–4 rats per cage) with a 12 h light/dark cycle at 22–24 °C and had free access to standard laboratory rodent chow (7012 Teklad mouse/rat diet from Envego, Inc., Indianapolis, IN, USA) and water. Rats were acclimated to the animal care facility for at least 7 days before the start of each experiment. Only male rats were used in the present study to minimize pharmacokinetic variations due to sex differences.
To facilitate the timed withdrawal of multiple blood samples from each animal, the right jugular vein of each animal was cannulated one day prior to drug administration. The cannulas were flushed daily with 0.5 mL of sterile heparinized saline (100 units/mL). Under anesthesia using a cocktail of ketamine/acetopromazine/xylazine (50:3.3:3.3 mg/kg ip), silicone elastomer tubing (0.02 × 0.037 in) was inserted into the jugular vein, secured with a silk suture, and exteriorized in the dorsal intrascapular area. The surgical incision was prophylactically treated with nitrofurazone wound powder and closed with surgical staples.
(§1) For the oral pharmacokinetics of R14, rats were fasted overnight and 4 h post-administration of 50 mg/kg oral dose of R14, with free access to water in metabolic cages. Serial blood samples (0.15 mL each) were collected from the cannulated jugular vein into heparin-coating tubes before dosing and at 5 min, 15 min, 30 min, 45 min, 1 h, 2 h, 3 h, 4 h, 6 h, 8 h, 10 h, and 24 h time points post dose. Plasma samples were separated immediately by centrifugation of the blood samples at 13,000 rpm for 3 min. For R14 quantification, 10 μL plasma aliquots were mixed with 30 μL of a stabilizing derivatization solution (0.1 M citric acid and 0.1 M sodium sulfite) and stored at −80 °C for analysis by UHPLC-MS/MS. For metabolite identification, 20 μL plasma aliquots were mixed with 80 μL acetonitrile containing 0.5% formic acid and stored at −80 °C for UHPLC-QTOF MS/MS analysis. Urine samples were collected over 0–24 h and stored at −80 °C.
For the intravenous (i.v.) pharmacokinetics of R14, another group of jugular vein cannulated rats received an i.v. administered 5 mg/kg R14 dose. Serial blood samples (0.15 mL each) were collected from the cannulated jugular vein into heparin-coating tubes before dosing and at 2 min, 5 min, 10 min, 30 min, 45 min, 1 h, 2 h, 4 h, 6 h, 8 h, 10 h, and 24 h time points post-dose. Plasma was processed similarly, with aliquots prepared for both R14 quantification and metabolite analysis, and urine collected over 24 h and stored at −80 °C.
The urine sample (10 μL each) was pre-mixed with 30 µL of derivatization agent (also acting as stabilizing agent). Pre-mixed plasma samples (with the derivation agent before storage) or the pre-mixed urine samples were added to 360 µL of acetonitrile (containing 2.5 ng/mL warfarin), vortexed for 2 min, and then centrifuged for 20 min. The supernatant (80 μL) was mixed with 160 µL of acetonitrile containing 0.5% formic acid, and finally, 100 μL aliquot of the mixture was transferred to a sample vial for UHPLC-MS/MS analysis.
R14 quantification via monitoring R14 bisulfite was conducted using a previously published method on a 6500+ Triple Quad UHPLC-MS/MS System (SCIEX, Framingham, MA, USA) coupled with a Synergi Fusion-RP column (50 × 2 mm, 4 µm, 80 Å, Phenomenex Inc., Torrance, CA, USA). […]

[2] = Metabolite identification and relative exposure in rat plasma and urine (UHPLC-QTOF MS/MS); assay type: in vivo, Sprague Dawley rats; settings: for Cumulative excretion in 24 h urine as fraction of total amount of R14 and its metabolites: rat urine 0-24 h, peak area x urine volume; for Source P (detected in plasma): rat plasma after single oral dose of 50 mg/kg R14; for Source U (detected in urine): rat urine 0-24 h after single oral dose of 50 mg/kg R14
Procedure: as §1
Twenty microliters of urine were mixed with 80 µL of methanol containing 0.5% formic acid, vortexed for 2 min, and centrifuged for 20 min. An 80 µL Aliquot of the supernatant was transferred to a sample vial for metabolite identification using UHPLC-QTOF MS/MS.
(§2) Samples from in vivo pharmacokinetic studies, in vitro blood stability studies, and in vitro hepatic microsome studies were pretreated at the time of collection. Before analysis, the samples were thawed at room temperature, vortexed for 2 min, and centrifuged at 14,000 rpm for 20 min. An 80 µL aliquot of the supernatant was transferred to a sample vial for UHPLC-QTOF MS/MS analysis.
Metabolite identification was performed on a UHPLC-X500B QTOF MS/MS (SCIEX, Framingham, MA, USA) equipped with a Synergi Fusion-RP column (4 µm, 150 × 2 mm, 80 Å, Phenomenex, Torrance, CA, USA). The mobile phases were water with 0.1% formic acid (A) and methanol with 0.1% formic acid (B), delivered at a flow rate of 0.4 mL/min. The autosampler and oven temperatures were set at 10 °C and 30 °C, respectively. The running time was 30 min. The gradient elution was as follows: 10% B for 0.5 min; increased to 70% over 20 min; then to 95% over 2 min; held at 95% for 5 min; returned to 10% in 0.5 min; and equilibrated for 2 min.
The QTOF MS/MS was operated In positive ion mode. Data were acquired in Information-dependent-acquisition (IDA) mode, starting with a TOF MS survey scan to detect precursor ions, followed by MS/MS scans of the top 10 most intense ions (intensity > 200 counts/s). TOF MS was set to scan m/z 200–700 with a 0.1 s accumulation time, while TOF MS/MS scanned m/z 50–700 with a 0.04 s accumulation time. The source temperature and spray voltage were set at 500 °C, and 5000 v, respectively. Curtain gas and collision gas (CAD) were set at 30 and 9 psi, while nebulizer gas (gas 1) and heater gas (gas 2) were set at 55 and 60 psi, respectively. The declustering potential (DP) was 50 V. Collision energy (CE) were 10 v for TOF MS and 35 v (±15 v spread) for TOF MS/MS. Data were acquired using SCIEX OS software 1.6.1, and processed on SCIEX OS software 3.1.0.
To elucidate the metabolic pathways and identify unknown metabolites of R14, we employed a multi-step strategy. First, MS/MS fragmentation analysis was performed to characterize the fragmentation pattern of R14 and identify its key fragment ions, which served as references for metabolite identification. Next, based on the chemical structure of R14, potential biotransformation pathways mediated by hepatic cytochrome P450 enzymes were predicted. These predicted metabolites were then screened in urine samples collected during in vivo pharmacokinetic studies to identify excreted metabolites. Metabolites detected in urine were subsequently cross-verified in plasma samples from the same in vivo studies. If verification failed or additional metabolites were suspected, the analysis reverted to the initial fragmentation step to identify downstream or daughter metabolites. […]

[3] = R14 permeability in the Caco-2 cell culture model; assay type: in vitro ADME; settings: human, Caco-2, R14 10 µM
Procedure: (§3) The permeability of R14 was assessed using the Caco-2 cell monolayer model, following the protocol by Liu and Hu (Liu 2002). Caco-2 cells (2.5 × 10^5 cells per insert; 4.2 cm^2 area, 3 μm pore size) were seeded and cultured at 37 °C with 90% humidity and 5% CO2 for 19–22 days. Monolayer integrity was evaluated using transepithelial electrical resistance (TEER) measurements with a Millicell ERS-2 system. Only monolayers with TEER values between 500 and 750 Ω·cm^2 were used.
(§4) Hank’s Balanced Salt Solution (HBSS), supplemented with NaHCO3 (0.35 g/L), HEPES (5.96 g/L), and glucose (3.5 g/L), adjusted to the desired pH, was used as the transport medium. Cells from passages 41–49 were used.
(§5) After confirming TEER, R14 working solution (10 µM) was added to either the apical or basolateral side of the insert, designating that side as the donor compartment, while the opposite side served as the receiver compartment. Samples (200 µL) were collected from both the apical (A) and basolateral (B) sides at 0, 0.5, 1, 2, and 4 h. The removed volume was immediately replaced with either fresh R14 working solution (on the donor side) or fresh buffer (on the receiver side) to maintain consistent volume and drug concentration throughout the experiment.
(§6) For analysis, 100 µL of acetonitrile containing 0.6% formic acid and internal standard was added to each collected sample. After vortexing and centrifugation, the supernatant was analyzed using UHPLC-MS/MS for R14 quantification.
(§7) The apparent permeability coefficient (P, cm/s) was calculated using the following equation: P=dQ/dt/A·C0 where dQ/dt is the permeability rate of drug appearance in the receiver compartment (µmol/s), A is the surface area of the cell monolayer (cm^2), and C0 is the initial concentration in the donor compartment (µmol/mL).
(§8) Permeability was assessed in both directions (apical to basolateral and basolateral to apical), and the efflux ratio was calculated as: Effluxratio=Pb−a/Pa−b where Pa−b is the permeability coefficient from apical to basolateral, and Pb−a is the permeability coefficient from basolateral to apical.

[4] = tested on: Caco-2 cell monolayer; experiment: R14 permeability in the Caco-2 cell culture model; assay type: in vitro ADME; settings: R14 10 µM
Procedure: as §3, §4, §5, §6, §7, §8

[5] = cited from earlier work
[6] = parameters: method as in PMID 36924633; settings: mouse whole blood stored at −70 °C; cited from earlier work
[7] = tested on: MDA-MB-231 tumor; parameters: method as in PMID 42013846; settings: oral R14 vs vehicle controls; cited from earlier work
[8] = R14 incubation in rat whole blood; assay type: in vitro ADME; settings: R14 10 µg/mL, room temperature, 3 days
Procedure: Previously, we observed the complete disappearance of R14 from mouse whole blood samples after being stored for 10 days in a −70 °C freezer, raising concerns about its stability under typical storage conditions. To further investigate the degradation and potential metabolic transformation of R14 in whole blood, we spiked rat whole blood with R14 (10 µg/mL) and left it at room temperature for 3 days. Room temperature incubation allows for ongoing enzymatic and non-enzymatic processes, providing insight into R14’s metabolic stability and degradation pathways under physiologically relevant but uncontrolled conditions. After incubation, a 4X volume of methanol containing 0.5% formic acid was added to the samples, followed by vortexing for 3 min and centrifugation to obtain supernatant prior to metabolite identification using the UHPLC coupled with quadrupole time-of-flight tandem mass spectrometry (UHPLC-QTOF MS/MS).
as §2, with “analysis. […]” for “analysis.”

[9] = male, Sprague Dawley, iv, i.v. 5 mg/kg, rat plasma, n = 3, mean ± SD
[10] = male, Sprague Dawley, rat, plasma, iv, i.v. 5 mg/kg, rats, n = 3, mean ± SD
[11] = male, Sprague Dawley, rat, plasma, oral 50 mg/kg, rats, n = 3, mean ± SD
[12] = male, Sprague Dawley, oral 50 mg/kg, rat plasma, n = 3, mean ± SD

Cc1ccccc1-n1sc2cc(F)ccc2c1=O [Metabolite R14, 6-Fluoro-2-(2-methylphenyl)-1,2-benzothiazol-3(2H)-one] showed an AUC(0-inf) [1, 9] of 1810 ± 444 ng·h/mL, an AUC(0-t) [1, 9] of 1580 ± 477 ng·h/mL and an MRT [1, 10] of 1.63 ± 0.39 h. It also gave a half-life [1, 10] of 5.39 ± 0.94 h, a clearance ([1]; male, Sprague Dawley, rat, plasma, iv, i.v. 5 mg/kg, rats, n = 3, mean ± SD, read-out: CL (systemic clearance) (converted)) of 43.8 mL/min/kg and a Vd ([1]; male, Sprague Dawley, rat, plasma, iv, i.v. 5 mg/kg, rats, n = 3, mean ± SD, read-out: Vd (volume of distribution)) of 20.7 ± 6.11 L/kg. The bioavailability ([1]; male, Sprague Dawley, rat, plasma, oral, 50 mg/kg, oral 50 mg/kg vs i.v. 5 mg/kg, rats, read-out: F% (absolute oral bioavailability)) was 13.4%, the MRT [1, 11] was 2.82 ± 0.5 h and the half-life [1, 11] was 2.99 ± 1.41 h. It also gave a CL/F ([1]; male, Sprague Dawley, rat, plasma, oral 50 mg/kg, rats, n = 3, mean ± SD, read-out: CL/F (apparent clearance) (converted)) of 367 mL/min/kg, a Vd/F ([1]; male, Sprague Dawley, rat, plasma, oral 50 mg/kg, rats, n = 3, mean ± SD, read-out: Vd/F (apparent volume of distribution)) of 93.3 ± 38.1 L/kg and a Tmax ([1]; male, Sprague Dawley, oral 50 mg/kg, rat plasma, n = 3) of 0.5 h. It also gave an AUC(0-inf) [1, 12] of 2430 ± 344 ng·h/mL, a Cmax [1, 12] of 1150 ± 201 ng/mL and an AUC(0-t) [1, 12] of 2080 ± 255 ng·h/mL. For the same compound, the “F% (absolute oral bioavailability)” value ([1]; oral 50 mg/kg vs i.v. 5 mg/kg, rats) was 13.38%, the “Cumulative excretion in 24 h urine as fraction of total amount of R14 and its metabolites” value [2] was “Less than 1%” and the Papp A→B at 4 h, 10 µM ([3]; n = 3, read-out: Pa−b (apical-to-basolateral permeability)) was 6.39 ± 0.6 ×10⁻⁶ cm/s. The Papp B→A at 4 h, 10 µM ([3]; n = 3, read-out: Pb−a (basolateral-to-apical permeability)) was 6.41 ± 1.15 ×10⁻⁶ cm/s, the efflux ratio at 4 h, 10 µM ([3]; read-out: Efflux ratio (Pb−a/Pa−b)) was 1.12 and the Permeability assessment [4] was “moderate permeability”. For the same compound, the “Solubility in DMSO” value ([5]; DMSO) was 25 mg/mL (≈ 96.4 mM), the Water solubility ([5]; water) was “poorly water soluble” and the “Time to complete disappearance from whole blood samples” value [6] was ≤ 10 days. The Survival [7] was “improved survival” and the Tumor size [7] was “significantly reduced”.
In the case of Cc1ccccc1N1Sc2cc(F)ccc2C1O (stereo not drawn) [Metabolite M1], the “Source P (detected in plasma)” value ([2]; 50 mg/kg) is reported as “low concentrations and relatively low levels and √”, the “Source U (detected in urine)” value [2] is reported as “undetectable” and the “Source B (detected in whole blood incubation)” value [8] is reported as “sole major metabolic product and √”.
In the case of Cc1ccccc1N1Sc2cc(F)ccc2C1OC1OC(C(=O)O)C(O)C(O)C1O (stereo not drawn) [Metabolite M4], the “Source P (detected in plasma)” value [2] is reported as “√”, the “Apparent AUC in plasma relative to total AUC of R14 and all identified metabolites” value ([2]; rat plasma, peak area as relative concentration) is reported as 22.3% and the “Cumulative excretion in 24 h urine as fraction of total amount of R14 and its metabolites” value [2] is reported as 48.4%. The “Source U (detected in urine)” value [2] was “√”.
